Test results reported in ChEMBL document CHEMBL4715805, “Structure-Activity Relationship for Sulfonamide Inhibition of Helicobacter pylori α-Carbonic Anhydrase” (J Med Chem, 2016).

Experiment: Inhibition of Helicobacter pylori alpha-carbonic anhydrase expressed in Escherichia coli assessed as inhibition constant preincubated for 15 mins prior to testing by phenol red-based stopped-flow CO2 hydration assay

Compound `Cn1nc(S(N)(=O)=O)s/c1=N/S(=O)(=O)c1ccc(C(C)(C)C)cc1` has a Ki of 8.2 nM.
